Several values for one entry are separate records, joined by “and”; a condition that tells them apart may be missing. Equal entries are not always repeated.
Legend:
[1] = tested on: L1210 Mouse Leukemia; assay: Antitumor activity against L1210 mouse leukemia inoculated i.p. in mice; type: in vivo, CDF₁ mouse; details: for Survival days (mean ± standard deviation) / T/C (%): CDF₁ mice; for Survival rate: living mice on the 30th day / mice in group
Description: Approximately 10⁵ cells of mouse leukemia L1210 which had been subcultured in DBA/2 mice were inoculated into the abdominal cavity of CDF₁ mouse (male, 6 weeks old, each group consisting of 6 to 10 mice). […] CDDP and CBDCA were tested as the positive control. Each complex tested was used in the form of a solution or suspension in 0.05% "Tween 80"-saline or in distilled water. Antitumor activity was evaluated based on the T/C value, calculated according to the following formula: [formula] The number of living mice was also recorded on the 30th day.

[2] = tested on: Slc:ICR mice; assay: Acute toxicity test in mice (LD50, Miller-Tainter method); type: in vivo; details: intraperitoneal, Slc:ICR mice (male), death rate on the 14th day
Description: The acute toxicity test of the compounds of the present invention to mice were carried out by using CDDP as the control. Platinum complexes to be tested was administered intraperitoneally to Slc:ICR mice (male, 5 weeks old, 6 mice/group). Each complex was used in the form of a solution or suspension in a 0.05% "Tween 80" - saline. The LD₅₀ value was calculated by the Miller-Tainter method from the death rate on the 14th day from the date of the administration.

[3] = dose 1 mg/kg i.p. on Day 1, 5 and 9
[4] = dose 10 mg/kg i.p. on Day 1, 5 and 9
[5] = dose 25 mg/kg i.p. on Day 1, 5 and 9
[6] = dose 50 mg/kg i.p. on Day 1, 5 and 9
[7] = dose 100 mg/kg i.p. on Day 1, 5 and 9
[8] = dose 5 mg/kg i.p. on Day 1, 5 and 9
[9] = dose 200 mg/kg i.p. on Day 1, 5 and 9
[10] = dose 2.5 mg/kg i.p. on Day 1, 5 and 9, 2.5 mg/kg
[11] = dose 5 mg/kg i.p. on Day 1, 5 and 9, 5 mg/kg
[12] = dose 7.5 mg/kg i.p. on Day 1, 5 and 9, 7.5 mg/kg

| Molecule | Survival days (mean ± standard deviation) [1, 3] [days] | T/C (%) [1, 3] [%] | Survival days (mean ± standard deviation) [1, 4] [days] | T/C (%) [1, 4] [%] | Survival days (mean ± standard deviation) [1, 5] [days] | T/C (%) [1, 5] [%] | Survival days (mean ± standard deviation) [1, 6] [days] | T/C (%) [1, 6] [%] | Survival days (mean ± standard deviation) [1, 7] [days] | T/C (%) [1, 7] [%] | Survival rate [1, 3] | Survival rate [1, 4] | Survival rate [1, 5] | Survival rate [1, 6] | Survival rate [1, 7] | LD₅₀ Value [2] [mg/kg] | Survival days (mean ± standard deviation) [1, 9] [days] | T/C (%) [1, 9] [%] | Survival rate [1, 9] | further results |
| --- | --- | --- | --- | --- | --- | --- | --- | --- | --- | --- | --- | --- | --- | --- | --- | --- | --- | --- | --- | --- |
| [Pt(trans-ℓ-1,2-diaminocyclohexane)](3-acetyl-6-methyltetrahydropyran-2,4-dione) (C₃H₇COO)·H₂O [Example 5] | 8.8 ± 1.6 | 104 | 10.2 ± 1.6 | 120 | 11.8 ± 1.7 | 139 | 16.3 ± 5.0 | 192 | 14.2 ± 5.0 | 167 | 0/6 | 0/6 | 0/6 | 0/6 | 0/6 | 111 |  |  |  |  |
| [Pt(trans-ℓ-1,2-diaminocyclohexane)](3-acetyl-6-methyltetrahydropyran-2,4-dione)(CH₃COO)·H₂O [Example 3] | 9.2 ± 1.0 | 110 | 14.0 ± 2.6 | 167 | 23.0 ± 6.4 | 274 | 15.2 ± 4.1 | 181 | 7.7 ± 1.5 | 91 | 0/6 | 0/6 | 2/6 | 0/6 | 0/6 | 61 | 3.0 ± 2.0 | 36 | 0/6 | Survival days (mean ± standard deviation) [1, 8]: 12.8 ± 3.0 days; T/C (%) [1, 8]: 152%; Survival rate [1, 8]: 0/6 |
| cis-diamminedichloroplatinum (II) [CDDP, reference compound] |  |  |  |  |  |  |  |  |  |  |  |  |  |  |  | 15.3 |  |  |  | Survival days (mean ± standard deviation) [1, 10]: 15.2 ± 1.9 days and 12.0 ± 3.0 days and 13.0 ± 3.1 days and 10.5 ± 1.8 days; T/C (%) [1, 10]: 181% and 143% and 153% and 125%; Survival days (mean ± standard deviation) [1, 11]: 18.5 ± 6.0 days and 14.3 ± 2.9 days and 18.2 ± 0.4 days and 15.5 ± 1.4 days; T/C (%) [1, 11]: 220% and 170% and 214% and 185%; Survival days (mean ± standard deviation) [1, 12]: 17.0 ± 2.2 days and 15.5 ± 2.1 days and 20.2 ± 4.8 days and 22.3 ± 3.9 days; T/C (%) [1, 12]: 202% and 185% and 238% and 266%; Survival rate ([1]; dose 2.5 mg/kg i.p. on Day 1, 5 and 9): 0/6; Survival rate [1, 11]: 1/6 and 0/6; Survival rate [1, 12]: 0/6 and 1/6 |
| [Pt(trans-ℓ-1,2-diaminocyclohexane)] (3-acetyl-6-methyltetrahydropyran-2,4-dione)₂·H₂O [Example 1] | 8.5 ± 0.5 | 101 | 11.5 ± 1.2 | 137 | 14.2 ± 3.2 | 169 | 17.0 ± 3.0 | 202 | 15.5 ± 5.0 | 185 | 0/6 | 0/6 | 0/6 | 0/6 | 0/6 | 98 | 6.0 | 71 | 0/6 |  |
| [Pt(trans-ℓ-1,2-diaminocyclohexane)](3-acetyl-6-methyl-2H-pyran-2,4(3H)-dione)(NO₃)·H₂O [Example 14] | 8.2 ± 0.4 | 98 | 11.3 ± 0.8 | 135 | 19.0 ± 8.5 | 226 | 18.0 ± 6.2 | 214 | 9.5 ± 1.2 | 113 | 0/6 | 0/6 | 2/6 | 1/6 | 0/6 | 73 | 5.0 | 60 | 0/6 |  |
| N.N.O=C([O-])C1(C(=O)[O-])CCC1.[Pt+2] [CBDCA, Platinum(II) cis-diamine-1,1-cyclobutanedicarboxylate, reference compound] | 8.3 ± 0.5 | 98 | 9.3 ± 0.5 | 109 | 10.1 ± 1.3 | 119 | 13.1 ± 2.3 | 156 | 14.1 ± 3.7 | 166 | 0/10 | 0/10 | 0/10 | 0/10 | 0/10 |  | 9.6 ± 0.7 | 113 | 0/10 |  |
| [Pt(trans-ℓ-1,2-diaminocyclohexane)] (3-acetyl-6-methyl-2H-pyran-2,4(3H)-dione)₂·H₂O [Example 2] | 8.7 ± 0.5 | 104 | 13.8 ± 3.6 | 164 | 19.7 ± 7.5 | 235 | 10.0 ± 1.1 | 119 | 6.3 ± 2.0 | 75 | 0/6 | 0/6 | 1/6 | 0/6 | 0/6 | 61 | 2.8 ± 1.6 | 33 | 0/6 |  |

— patent EP0337459A2, “Platinum complex, process for preparing same and antitumor agent” (TORAY INDUSTRIES, INC., priority 1988, dated 1989)
